Legend:
Sodl G93A mutant mice [1] = assay: ALS disease progression score in Sod1 G93A mutant mice; assay type: in vivo, mouse
Experimental: (§1) ALS is a debilitating disease that according to the ALS Association affects two per 100,000 people in the USA. There is no cure and the average survival time after diagnosis is three years. In this study, the inventors investigated the impact of treatment with […], an antioxidant, on ALS progression. Female Sodl G93A mutant mice, an established mouse model of ALS, and wildtype (wt) mice were treated with OKN-077 for three months starting at the age of 60 days, before the mice became symptomatic, and compared to age matched untreated controls (both transgenic and wt). Disease progression measured by monitoring disease score on a scale of 1-5 (based on hind limb paralysis and dysfunction) was delayed in the treated mice. All treated mice were at stage 2 at the time of sacrifice at 145 days (end stage disease is ˜160 days), while untreated transgenic controls had progressed to stage ≥2. […] The untreated transgenic control mice had on average 10.7 ±2.1 alpha motor neurons per ventral horn, while the treated transgenic mice had 17.5 ±4.5 alpha motor neurons (a 64% increase). […] These findings indicate that OKN-077 may potentially be considered as a possible therapeutic agent for ALS, and certainly warrants further investigation.

Sodl G93A mutant mice [2] = assay: Spinal cord histology (NeuN motor neuron counts, microglia, astrocytes) in G93A mice; assay type: in vivo, mouse
Experimental: as §1

TGF-β1 = TGF-β1 pathway expression; conditions: gene not directly down-regulated; stated without data
Sodl G93A mutant mice [3] = assay: MRI (diffusion, perfusion) and MR spectroscopy of spinal cord in G93A mice; assay type: in vivo, mouse
Experimental: as §1

[4] = test system: orthotopic GBM xenografts; conditions: cited from earlier work
normal cells = assay: Effects on normal cells; conditions: stated without data
CS99 cells = assay: Endometrial cancer in vivo, CS99 cells i.p. in athymic nude mice (survival, MRI tumor volume); set-up: species or system mouse
Experimental: CS99 cells were obtained from K. Moxley (OUHSC). 10^6 cells were injected i.p. into Athymic Nude Foxnlnu mice (Envigo) mice. Gd-DTPA (MRI contrast agent; administered i.v. via a tail-vein-catheter) was used to detect tumors. OKN-077 was administered 150 mg/kg daily in drinking water.

CD44v6 = CD44v6 biomarker regulation; conditions: biomarker directly associated with metastasis; stated without data
[5] = Towner et al., Translational Oncology 2019
[6] = previous assessment by the inventors

CC(C)(C)/[N+]([O-])=C/c1ccc(S(=O)(=O)[O-])cc1S(=O)(=O)[O-].[Na+].[Na+] [OKN-077, 2,4-Disulfonyl-N-Tert-Butylnitrone, 2,4-disulfonyl α-phenyl tertiary butyl nitrone]
Delay in reaching the score of 2 versus untreated G93A mice (Sodl G93A mutant mice [1]; FIG. 2C): around 14 days
Highest disease score reached (Sodl G93A mutant mice [1]; FIG. 2D, untreated G93A mice reached score 3 around 136 days of age): ≤ 2
Disease progression (disease score based on hind limb paralysis and dysfunction) (Sodl G93A mutant mice [1]; female G93A mice treated three months from age 60 days, vs untreated transgenic controls): delayed
Disease stage at the time of sacrifice (Sodl G93A mutant mice [1]; sacrifice at 145 days, scale of 1-5, all treated mice): 2
Disease onset (Sodl G93A mutant mice [1]; treated vs untreated G93A mice (FIG. 2B)): doesn't delay
Motor neuron loss (Sodl G93A mutant mice [2]; NeuN stained ventral horn, treated vs untreated G93A p=0.0197): prevents
Astrocyte activation (Sodl G93A mutant mice [2]; mouse, in vivo): didn't affect
Alpha motor neurons per ventral horn (Sodl G93A mutant mice [2]; treated transgenic mice, untreated transgenic 10.7 ±2.1): 17.5 ±4.5
Microglia activation (Sodl G93A mutant mice [2]; treated vs untreated G93A mice): decreases
Ramified, non-activated microglia (Sodl G93A mutant mice [2]; treated vs untreated G93A mice, p=0.0026): significantly more
Increase in alpha motor neurons versus untreated transgenic mice (Sodl G93A mutant mice [2]; treated vs untreated transgenic mice): 64%
Astrocyte proliferation (Sodl G93A mutant mice [2]; treatment p=0.23, FIGS. 5B and 5C): doesn't affect
Microglia proliferation (number of Ibal+ cells) (Sodl G93A mutant mice [2]; two-way ANOVA, treatment p=0.0244, FIG. 5A): treatment effect
TGF-β1 protein expression (TGF-β1): decreased
Myo-inositol (Myo-Ins)/creatine ratio by MRS (Sodl G93A mutant mice [3]; stated for ALS c (non-treated) vs ALS t (treated) mice, FIG. 6C): significant decrease
Spinal cord metabolite myo-inositol (Sodl G93A mutant mice [3]; treated vs untreated): significantly elevated
Apparent diffusion coefficient (ADC) in the lumbar region of the spinal cord (Sodl G93A mutant mice [3]; treated vs untreated, p<0.001): decreased
Relative tissue blood flow in the spinal cord (Sodl G93A mutant mice [3]; treated vs untreated, p<0.01): significantly increase
ADC in the surrounding muscle tissue (Sodl G93A mutant mice [3]; treated vs untreated, p<0.05): increased
TMZ-Resistant Glioblastoma (GBM) tumor growth [4, 5]: suppresses
Temozolomide (TMZ) sensitivity [4, 5]: increases
Survival in orthotopic GBM xenografts [4, 6]: increasing
Tumor volumes in orthotopic GBM xenografts [4, 6]: decreasing
Adverse effects on normal cells (normal cells): no adverse effects
Survival of tumor-bearing mice compared to untreated (UT) (CS99 cells; 150 mg/kg daily in drinking water, FIG. 7): significant increase
Tumor size on MR images at 21 days after CS99 cell implantations (CS99 cells; compared to untreated tumors, FIG. 8): consistently small tumors
Tumor volumes compared to UT mice (CS99 cells; ~21 days after cell implantation, p<0.0001, FIG. 9): significantly decrease
CD44v6 regulation (CD44v6): downregulates
